In US20260232767A1, “INTERLEUKIN-23 RECEPTOR ANTAGONIST PEPTIDES FOR USE IN THE TREATMENT OF PSORIASIS” (Janssen Pharmaceutica NV, priority 2023, published 2026):

Tested on: subjects with moderate-to-severe plaque psoriasis
Experiment: PASI response, Example 2 long-term extension to Week 52
Format: in vivo, human
Conditions: for Change from Baseline in PASI Total Score, LSMean: MMRM model
Description: Described below is a multicenter, long-term extension (LTE), double-blind, dose-ranging, parallel group interventional study in participants from Example 1 to evaluate the long-term efficacy and safety of the hydrochloride salt of the compound of Formula (I) for the treatment of moderate-to-severe plaque psoriasis. Patients from Example 1 continued to receive the same dose of the compound of Formula (I) for an additional 36-week treatment period with a 4-week safety follow up period after the last administration of the compound of Formula (I). Patients randomized to placebo in Example 1 received the compound of Formula (I) at a dose of 100 mg QD starting at Week 16 of Example 1 (FIG. 21).
The primary efficacy endpoint is the proportion of participants achieving a PASI 75 response at Week 52, defined as at least a […] reduction from baseline PASI of Example 1. For primary analysis, composite strategy (non-responder imputation) was applied to address intercurrent event #1 (Discontinuation of study intervention due to lack of efficacy or due to an AE of worsening of psoriasis) and […] (initiation of a protocol-prohibited medication or therapy that could improve psoriasis); treatment policy strategy (observed data) was applied to intercurrent event #3 (Discontinuation of study intervention due to other reasons). Participants with missing data after application of ICEs are considered as non-responders.
Since there was no control arm (after week 16), in this primary analysis, only the proportion of participants who achieved a PASI75 response and its […] confidence interval at Week 52 were summarized for each intervention group.

[1] = 50 mg QD, Week 52, non-responder imputation

Compound: CC(=O)NCCCC[C@@H]1NC(=O)[C@H](Cc2c[nH]c3c(C)cccc23)NC(=O)[C@H]([C@@H](C)O)NC(=O)[C@H](CC(N)=O)NC(=O)[C@@H](NC(C)=O)C(C)(C)SSC(C)(C)[C@@H](C(=O)N[C@@H](Cc2ccc(OCCN)cc2)C(=O)N[C@@H](Cc2ccc3ccccc3c2)C(=O)NC2(C(=O)N[C@@H](CCC(=O)O)C(=O)N[C@@H](CC(N)=O)C(=O)N[C@@H](Cc3cccnc3)C(=O)N(C)CC(N)=O)CCOCC2)NC1=O [IL-23 receptor antagonist peptide, Ac-[Pen]*-N-T-[W(7-Me)]-[Lys(Ac)]-[Pen]*-Phe[4-(2-aminoethoxy)]-[2-Nal]-[THP]-E-N-[3-Pal]-Sarc-NH2 (*[Pen]-[Pen]* formdisulfidebond)]
- Change from Baseline in PASI Total Score, Median (50 mg QD, Week 16): −14.90
- Change from Baseline in PASI Total Score, LSMean (50 mg QD, Week 16): −14.4
- Change from Baseline in PASI Total Score, Mean (50 mg QD, Week 20): −14.92
- Change from Baseline in PASI Total Score, Median (50 mg QD, Week 20): −15.10
- Change from Baseline in PASI Total Score, LSMean (50 mg QD, Week 20): −14.7
- Change from Baseline in PASI Total Score, Mean (50 mg QD, Week 24): −15.10
- Change from Baseline in PASI Total Score, Median (50 mg QD, Week 24): −15.70
- Change from Baseline in PASI Total Score, LSMean (50 mg QD, Week 24): −14.9
- Change from Baseline in PASI Total Score, Mean (50 mg QD, Week 28): −14.75
- Change from Baseline in PASI Total Score, Median (50 mg QD, Week 28): −15.50
- Change from Baseline in PASI Total Score, LSMean (50 mg QD, Week 28): −14.6
- Change from Baseline in PASI Total Score, Mean (50 mg QD, Week 32): −14.88
- Change from Baseline in PASI Total Score, Median (50 mg QD, Week 32): −15.80
- Change from Baseline in PASI Total Score, LSMean (50 mg QD, Week 32): −14.6
- Change from Baseline in PASI Total Score, Mean (50 mg QD, Week 40): −14.33
- Change from Baseline in PASI Total Score, Median (50 mg QD, Week 40): −15.45
- Change from Baseline in PASI Total Score, LSMean (50 mg QD, Week 40): −14.2
- Change from Baseline in PASI Total Score, Mean (50 mg QD, Week 52): −14.45
- Change from Baseline in PASI Total Score, Median (50 mg QD, Week 52): −15.80
- Subjects achieving PASI 75 (50 mg QD, Week 52): 30 (69.8%)
- Change from Baseline in PASI Total Score, LSMean (50 mg QD, Week 52): −14.3
- Subjects achieving 100% Improvement at Week 52 (PASI) [1]: (20.9%)
- Subjects achieving ≥75% Improvement at Week 52 (PASI 75 Response) [1]: 30 (69.8%)
- Subjects achieving ≥90% Improvement at Week 52 (PASI) [1]: (41.9%)
- Change from Baseline in PASI Total Score, Mean (100 mg BID, Week 1): −3.25
- Change from Baseline in PASI Total Score, Median (100 mg BID, Week 1): −1.20
- Change from Baseline in PASI Total Score, LSMean (100 mg BID, Week 1): −2.9
- Change from Baseline in PASI Total Score, Mean (100 mg BID, Week 2): 6.07
- Change from Baseline in PASI Total Score, Median (100 mg BID, Week 2): −4.85
- Change from Baseline in PASI Total Score, LSMean (100 mg BID, Week 2): −5.7
- Change from Baseline in PASI Total Score, Mean (100 mg BID, Week 4): −10.71
- Change from Baseline in PASI Total Score, Median (100 mg BID, Week 4): −9.70
- Change from Baseline in PASI Total Score, LSMean (100 mg BID, Week 4): −10.0
- Change from Baseline in PASI Total Score, Mean (100 mg BID, Week 8): −14.66
- Change from Baseline in PASI Total Score, Median (100 mg BID, Week 8): −13.30
- Change from Baseline in PASI Total Score, LSMean (100 mg BID, Week 8): −13.8
- Change from Baseline in PASI Total Score, Mean (100 mg BID, Week 12): −16.77
- Change from Baseline in PASI Total Score, Median (100 mg BID, Week 12): −17.05
- Change from Baseline in PASI Total Score, LSMean (100 mg BID, Week 12): −15.9
- Change from Baseline in PASI Total Score, Mean (100 mg BID, Week 16): −17.44
- Change from Baseline in PASI Total Score, Median (100 mg BID, Week 16): −17.40
- Change from Baseline in PASI Total Score, LSMean (100 mg BID, Week 16): −16.5
- Change from Baseline in PASI Total Score, Mean (100 mg BID, Week 20): −17.83
- Change from Baseline in PASI Total Score, Median (100 mg BID, Week 20): −17.40
- Change from Baseline in PASI Total Score, LSMean (100 mg BID, Week 20): −17.0
- Change from Baseline in PASI Total Score, Mean (100 mg BID, Week 24): −17.99
- Change from Baseline in PASI Total Score, Median (100 mg BID, Week 24): −17.80
- Change from Baseline in PASI Total Score, LSMean (100 mg BID, Week 24): −17.1
- Change from Baseline in PASI Total Score, Mean (100 mg BID, Week 28): −17.96
- Change from Baseline in PASI Total Score, Median (100 mg BID, Week 28): −17.75
- Change from Baseline in PASI Total Score, LSMean (100 mg BID, Week 28): −17.2
- Change from Baseline in PASI Total Score, Mean (100 mg BID, Week 32): −18.37
- Change from Baseline in PASI Total Score, Median (100 mg BID, Week 32): −18.20
- Change from Baseline in PASI Total Score, LSMean (100 mg BID, Week 32): −17.3
- Change from Baseline in PASI Total Score, Mean (100 mg BID, Week 40): −18.30
- Change from Baseline in PASI Total Score, Median (100 mg BID, Week 40): −18.30
- Change from Baseline in PASI Total Score, LSMean (100 mg BID, Week 40): −17.4
- Change from Baseline in PASI Total Score, Mean (100 mg BID, Week 52): −18.46
- Change from Baseline in PASI Total Score, Median (100 mg BID, Week 52): −18.60
- Subjects achieving PASI 75 (100 mg BID, Week 52): 32 (76.2%)
- Change from Baseline in PASI Total Score, LSMean (100 mg BID, Week 52): −17.4
- Subjects achieving ≥75% Improvement at Week 52 (PASI 75 Response) (100 mg BID, Week 52, non-responder imputation): 32 (76.2%)
- Change from Baseline in PASI Total Score, Mean (100 mg QD, Week 1): −2.60
- Change from Baseline in PASI Total Score, Median (100 mg QD, Week 1): −1.10
- Change from Baseline in PASI Total Score, LSMean (100 mg QD, Week 1): −2.8
- Change from Baseline in PASI Total Score, Mean (100 mg QD, Week 2): −5.13
- Change from Baseline in PASI Total Score, Median (100 mg QD, Week 2): −3.25
- Change from Baseline in PASI Total Score, LSMean (100 mg QD, Week 2): −5.3
- Change from Baseline in PASI Total Score, Mean (100 mg QD, Week 4): −8.39
- Change from Baseline in PASI Total Score, Median (100 mg QD, Week 4): −7.30
- Change from Baseline in PASI Total Score, LSMean (100 mg QD, Week 4): −8.7
- Change from Baseline in PASI Total Score, Mean (100 mg QD, Week 8): −12.04
- Change from Baseline in PASI Total Score, Median (100 mg QD, Week 8): −11.30
- Change from Baseline in PASI Total Score, LSMean (100 mg QD, Week 8): −12.5
- Change from Baseline in PASI Total Score, Mean (100 mg QD, Week 12): −13.70
- Change from Baseline in PASI Total Score, Median (100 mg QD, Week 12): −13.60
- Change from Baseline in PASI Total Score, LSMean (100 mg QD, Week 12): −14.0
- Change from Baseline in PASI Total Score, Mean (100 mg QD, Week 16): −13.99
- Change from Baseline in PASI Total Score, Median (100 mg QD, Week 16): −14.75
- Change from Baseline in PASI Total Score, LSMean (100 mg QD, Week 16): −14.4
- Change from Baseline in PASI Total Score, Mean (100 mg QD, Week 20): −14.57
- Change from Baseline in PASI Total Score, Median (100 mg QD, Week 20): −14.10
- Change from Baseline in PASI Total Score, LSMean (100 mg QD, Week 20): −15.1
- Change from Baseline in PASI Total Score, Mean (100 mg QD, Week 24): −15.27
- Change from Baseline in PASI Total Score, Median (100 mg QD, Week 24): −14.90
- Change from Baseline in PASI Total Score, LSMean (100 mg QD, Week 24): −15.6
- Change from Baseline in PASI Total Score, Mean (100 mg QD, Week 28): −16.11
- Change from Baseline in PASI Total Score, Median (100 mg QD, Week 28): −15.00
- Change from Baseline in PASI Total Score, LSMean (100 mg QD, Week 28): −15.8
- Change from Baseline in PASI Total Score, Mean (100 mg QD, Week 32): −16.21
- Change from Baseline in PASI Total Score, Median (100 mg QD, Week 32): −15.10
- Change from Baseline in PASI Total Score, LSMean (100 mg QD, Week 32): −16.2
- Change from Baseline in PASI Total Score, Mean (100 mg QD, Week 40): −15.95
- Change from Baseline in PASI Total Score, Median (100 mg QD, Week 40): −15.00
- Change from Baseline in PASI Total Score, LSMean (100 mg QD, Week 40): −15.7
- Change from Baseline in PASI Total Score, Mean (100 mg QD, Week 52): −15.81
- Change from Baseline in PASI Total Score, Median (100 mg QD, Week 52): −15.00
